Drawing on US20120088774A1, “ACTIVE PHARMACEUTICAL INGREDIENT ADSORBED ON SOLID SUPPORT” (LEK PHARMACEUTICALS D.D., priority 2009, published 2012), this text covers Amount dissolved and solubility in water for two compounds.

Series [1] can be described thus: Dissolution of crystalline lovastatin and lovastatin adsorbate in 0.02M hydrochloric acid. Type of series: physicochemical. The procedure:
0.2 g of lovastatin was dissolved in a mixture of 10 ml trichloromethane and 40 ml diisopropyl ether. 2 g of a the SYLOID® AL1 was added to the solution. Subsequently the solvent was removed by evaporation.

The nature of series [2]: Dissolution of crystalline simvastatin and simvastatin adsorbate in 0.02M hydrochloric acid. The series is classed as physicochemical. The method, then:
0.2 g of simvastatin was dissolved in 50 ml of dichloromethane. 2 g of a the SYLOID® AL1 was added to the solution. Subsequently the solvent was removed by evaporation. The sample was analysed using X-ray powder diffraction (XRPD). Using XRPD it was confirmed that the API in the product was amorphous. The use of dichloromethane as the solvent for simvastatin and SYLOID® AL1 as the carrier gives the adsorbate according to the invention.

For series [3] the following is noted: crystalline solid; term defined as less or equal to 0.1 mg/ml; cited from earlier work.
Series [4] is described as follows: Dissolution of crystalline tadalafil, tadalafil adsorbate and precipitates on carriers. The series is classed as physicochemical. The conditions noted are these: 20 mM phosphate buffer pH 6.9. The method, then: The carriers comprising tadalafil have been prepared as described in example 1.
0.1 g of tadalafil was dissolved in 20 ml of dichloromethane. 5 ml of the resulting solution was added to 0.25 g of a solid support (Aerosil® 380, Al2O3, MgO, TiO2). Subsequently the solvent was removed by evaporation.

Structures are written as SMILES.

For `CC[C@H](C)C(=O)O[C@H]1C[C@@H](C)C=C2C=C[C@H](C)[C@H](CC[C@@H]3C[C@@H](O)CC(=O)O3)[C@H]21` [Crystalline lovastatin, lovastatin], the Amount dissolved is 0.298 µg/mL in series [1] (2 min); 0.403 µg/mL in series [1] (5 min); 0.418 µg/mL in series [1] (10 min); 0.501 µg/mL in series [1] (15 min); 0.625 µg/mL in series [1] (25 min); 0.523 µg/mL in series [1] (40 min). The Amount dissolved is 0.62 µg/mL in series [1] (60 min); 0.848 µg/mL in series [2] (2 min); 1.667 µg/mL in series [2] (5 min); 1.853 µg/mL in series [2] (10 min); 1.859 µg/mL in series [2] (15 min); 2.031 µg/mL in series [2] (25 min). In addition, the Amount dissolved in series [2] (40 min) came out at 2.145 µg/mL; in series [2] (60 min), 2.175 µg/mL.

With `CN1CC(=O)N2[C@H](c3ccc4c(c3)OCO4)c3[nH]c4ccccc4c3C[C@@H]2C1=O` [Crystalline tadalafil, (6R,12aR)-6-(1,3-Benzodioxol-5-yl)-2,3,6,7,12,12a-hexahydro-2-methyl-pyrazino[1′,2′:1,6]pyrido[3,4-b]indole-1,4-dione], the solubility in water entry in series [3] is “practically insoluble in water”. The Amount dissolved in series [4] (2 min) came out at 2.9 µg/mL; in series [4] (5 min), 14.6 µg/mL; in series [4] (10 min) it was 24.2 µg/mL; in series [4] (15 min) it was 27.0 µg/mL; in series [4] (25 min) it was 32.9 µg/mL; in series [4] (40 min), 34.4 µg/mL.
